Measurements taken from patent US9708336B2, “Metallo-beta-lactamase inhibitors” (priority 2014, dated 2017).
Read-outs that look alike come from different tables or passages of the source.

Legend:
NDM-1 = NDM-1 (Klebsiella pneumoniae, UniProt C7C422); assay: biochemical; type: biochemical; conditions: fluorescence assay with CCF2-FA substrate; read-out: NDM-1 IC50
IMP-1 = IMP-1 (Serratia marcescens, UniProt P52699); assay: biochemical; type: biochemical; conditions: fluorescence assay with CCF2-FA substrate; read-out: IMP-1 IC50
IMP-1, sequence (P52699 whole entry, looked up): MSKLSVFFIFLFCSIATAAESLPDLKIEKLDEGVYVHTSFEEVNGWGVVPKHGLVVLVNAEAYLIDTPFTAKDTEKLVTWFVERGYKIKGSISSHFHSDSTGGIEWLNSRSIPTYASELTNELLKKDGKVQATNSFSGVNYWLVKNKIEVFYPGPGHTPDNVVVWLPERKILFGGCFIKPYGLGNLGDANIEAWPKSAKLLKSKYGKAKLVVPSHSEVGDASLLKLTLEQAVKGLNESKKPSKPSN

VIM-1 = VIM-1 (Pseudomonas aeruginosa (strain ATCC 15692 / DSM 22644 / CIP 104116 / JCM 14847 / LMG 12228 / 1C / PRS 101 / PAO1), UniProt A0A0F7KYQ8); assay: Enzyme activity: determination of IC50, fluorescence assay with CCF2-FA substrate (VIM-1); type: biochemical
[1] = tested on: Escherichia coli expressing NDM-1 (CLB30016); assay: Antibiotic potentiation activity: synergistic concentration (MITC95) with imipenem, OD600 growth; type: cell-based; conditions: CLB30016 (NDM-1), 95% inhibition of bacterial growth
Method in brief: (§1)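 Growth after 22–24 h at 35 °C is measured spectrophotometrically for bacteria incubated with compound plus imipenem (4 μg/ml in-well, or 1 μg/ml). Cells come from overnight agar colonies resuspended in saline and diluted 1:100 in 1.1× CAMHB.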

[2] = tested on: Klebsiella pneumoniae expressing VIM-1 (IHMA599644); assay: as above; type: cell-based; conditions: IHMA599644 (VIM-1), 95% inhibition of bacterial growth
Method in brief: as §1

[3] = tested on: Serratia marcescens expressing IMP-1 (CL5741); assay: as above; type: cell-based; conditions: CL5741 (IMP-1), 95% inhibition of bacterial growth
Method in brief: as §1

[4] = fluorescence assay with CCF2-FA substrate, read-out: VIM-1 IC50
[5] = VIM-1 IC50, fluorescence assay with CCF2-FA substrate

NDM-1, sequence (C7C422 whole entry, looked up, species assumed): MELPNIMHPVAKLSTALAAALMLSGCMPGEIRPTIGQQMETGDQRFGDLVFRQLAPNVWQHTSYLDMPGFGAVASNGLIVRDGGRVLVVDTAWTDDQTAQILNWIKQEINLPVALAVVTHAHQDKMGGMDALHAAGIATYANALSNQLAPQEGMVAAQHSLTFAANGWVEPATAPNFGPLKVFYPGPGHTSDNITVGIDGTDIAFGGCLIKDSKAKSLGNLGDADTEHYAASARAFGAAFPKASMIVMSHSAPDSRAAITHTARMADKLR

With `NCCCCN1CC(c2ccc(-c3ccc(C(F)(F)F)c(S(N)(=O)=O)c3-c3nnn[nH]3)cc2)C1` [Example 817, 4′-[1-(4-aminobutyl)azetidin-3-yl]-2-(1H-tetrazol-5-yl)-4-(trifluoromethyl)biphenyl-3-sulfonamide] the IC50 (NDM-1) was 4.46 nM, the IC50 (IMP-1) was 15 nM and the IC50 (VIM-1; [4]) was 9.5 nM. The “Escherichia coli MITC95” value [1] was 1.563 µM, the “Klebsiella pneumoniae MITC95” value [2] was 12.5 µM and the “Serratia marcescens MITC95” value [3] was 6.25 µM.
`NS(=O)(=O)c1c(C(F)(F)F)ccc(-c2ccc(C3CN(CC4CCNC4)C3)cc2)c1-c1nnn[nH]1` (stereo not drawn) [Example 818, 4′-[1-(pyrrolidin-3-ylmethyl)azetidin-3-yl]-2-(1H-tetrazol-5-yl)-4-(trifluoromethyl)biphenyl-3-sulfonamide] was tested, and the IC50 (NDM-1) was 4.38 nM, the IC50 (IMP-1) was 8.6 nM and the IC50 (VIM-1; [4]) was 17.2 nM. The “Escherichia coli MITC95” value [1] was 1.563 µM, the “Klebsiella pneumoniae MITC95” value [2] was 12.5 µM and the “Serratia marcescens MITC95” value [3] was 3.125 µM.
For `NS(=O)(=O)c1c(C(F)(F)F)ccc([C@H]2CC[C@@H](N)CC2)c1-c1nnn[nH]1` [Example 819, 3-((1s,4s)-4-aminocyclohexyl)-2-(1H-tetrazol-5-yl)-6-(trifluoromethyl)benzenesulfonamide], the IC50 (NDM-1) was 14.3 nM, the IC50 (IMP-1) was 97.1 nM and the IC50 (VIM-1; [4]) was 27.4 nM. For the same compound, the “Escherichia coli MITC95” value [1] was 0.8464 µM, the “Klebsiella pneumoniae MITC95” value [2] was 3.385 µM and the “Serratia marcescens MITC95” value [3] was 1.823 µM.
Work on `NS(=O)(=O)c1c(C(F)(F)F)ccc([C@H]2CC[C@H](N)CC2)c1-c1nnn[nH]1` [Example 820, 3-((1r,4r)-4-aminocyclohexyl)-2-(1H-tetrazol-5-yl)-6-(trifluoromethyl)benzenesulfonamide] yielded an IC50 (NDM-1) of 13.5 nM, an IC50 (IMP-1) of 39.4 nM and an IC50 (VIM-1; [4]) of 0.659 nM. The “Escherichia coli MITC95” value [1] was 0.3906 µM, the “Klebsiella pneumoniae MITC95” value [2] was 0.7813 µM and the “Serratia marcescens MITC95” value [3] was 0.7813 µM.
In the case of `NCC1CCN(c2ccc(C(F)(F)F)c(S(N)(=O)=O)c2-c2nnn[nH]2)CC1` [Example 821, 3-[4-(aminomethyl)-1-piperidyl]-2-(1H-tetrazol-5-yl)-6-(trifluoromethyl)benzenesulfonamide], the IC50 (NDM-1) is reported as 18.1 nM, the IC50 (IMP-1) is reported as 55.1 nM and the IC50 (VIM-1; [5]) is reported as 0.496 nM. The “Escherichia coli MITC95” value [1] was 12.5 µM, the “Klebsiella pneumoniae MITC95” value [2] was 12.5 µM and the “Serratia marcescens MITC95” value [3] was 6.25 µM.
`N=C(N)N1CCC2(CC1)CCN(c1ccc(C(F)(F)F)c(S(N)(=O)=O)c1-c1nnn[nH]1)CC2` [Example 822, 9-[3-sulfamoyl-2-(1H-tetrazol-5-yl)-4-(trifluoromethyl)phenyl]-3,9-diazaspiro[5.5]undecane-3-carboxamidine] showed an IC50 (NDM-1) of 1.44 nM, an IC50 (IMP-1) of 2.25 nM and an IC50 (VIM-1; [5]) of 0.195 nM. For the same compound, the “Escherichia coli MITC95” value [1] was 0.6406 µM, the “Klebsiella pneumoniae MITC95” value [2] was 1.086 µM and the “Serratia marcescens MITC95” value [3] was 0.0938 µM.
`N=C(N)N[C@H]1CC[C@H](c2ccc(C(F)(F)F)c(S(N)(=O)=O)c2-c2nnn[nH]2)CC1` [Example 823, 1-[4-[3-sulfamoyl-2-(1H-tetrazol-5-yl)-4-(trifluoromethyl)phenyl]cyclohexyl] guanidine] gave an IC50 (NDM-1) of 17.5 nM, an IC50 (IMP-1) of 25.4 nM and an IC50 (VIM-1; [4]) of 0.666 nM. The “Escherichia coli MITC95” value [1] was 1.172 µM, the “Klebsiella pneumoniae MITC95” value [2] was 1.172 µM and the “Serratia marcescens MITC95” value [3] was 0.3906 µM.
In the case of `N=C(N)NC1CCN(c2ccc(C(F)(F)F)c(S(N)(=O)=O)c2-c2nnn[nH]2)CC1` [Example 824, 1-[1-[3-sulfamoyl-2-(1H-tetrazol-5-yl)-4-(trifluoromethyl)phenyl]-4-piperidyl]guanidine], the IC50 (NDM-1) is reported as 53.1 nM, the IC50 (IMP-1) is reported as 59.2 nM and the IC50 (VIM-1; [4]) is reported as 0.702 nM. For the same compound, the “Escherichia coli MITC95” value [1] was 1.563 µM, the “Klebsiella pneumoniae MITC95” value [2] was 0.7813 µM and the “Serratia marcescens MITC95” value [3] was 0.7813 µM.
`N=C(N)N1CCC([C@H]2CC[C@H](c3ccc(C(F)(F)F)c(S(N)(=O)=O)c3-c3nnn[nH]3)CC2)CC1` [Example 825, 4-[4-[3-sulfamoyl-2-(1H-tetrazol-5-yl)-4-(trifluoromethyl)phenyl]cyclohexyl] piperidine-1-carboxamidine] showed an IC50 (NDM-1) of 0.157 nM, an IC50 (IMP-1) of 0.499 nM and an IC50 (VIM-1; [4]) of 0.0805 nM. For the same compound, the “Escherichia coli MITC95” value [1] was 0.7813 µM, the “Klebsiella pneumoniae MITC95” value [2] was 3.125 µM and the “Serratia marcescens MITC95” value [3] was 1.563 µM.
`N=C(N)N1CCC2(CCC(c3ccc(C(F)(F)F)c(S(N)(=O)=O)c3-c3nnn[nH]3)CC2)CC1` [Example 826, 9-[3-sulfamoyl-2-(1H-tetrazol-5-yl)-4-(trifluoromethyl)phenyl]-3-azaspiro[5.5]undecane-3-carboxamidine] was tested, and the IC50 (NDM-1) was 0.491 nM, the IC50 (IMP-1) was 1.45 nM and the IC50 (VIM-1; [5]) was 1.36 nM. For the same compound, the “Escherichia coli MITC95” value [1] was 1.563 µM, the “Klebsiella pneumoniae MITC95” value [2] was 25 µM and the “Serratia marcescens MITC95” value [3] was 3.125 µM.
For `NCCNC1CCC(c2ccc(C(F)(F)F)c(S(N)(=O)=O)c2-c2nnn[nH]2)CC1` (stereo not drawn) [Example 827, 3-[4-(trans-2-aminoethylamino)cyclohexyl]-2-(1H-tetrazol-5-yl)-6-(trifluoromethyl)benzenesulfonamide], the IC50 (NDM-1) was 5.72 nM, the IC50 (IMP-1) was 22.6 nM and the IC50 (VIM-1; [5]) was 2.59 nM. The “Escherichia coli MITC95” value [1] was 0.3906 µM, the “Klebsiella pneumoniae MITC95” value [2] was 1.172 µM and the “Serratia marcescens MITC95” value [3] was 0.3906 µM.
`NCCN[C@H]1CC[C@@H](c2ccc(C(F)(F)F)c(S(N)(=O)=O)c2-c2nnn[nH]2)CC1` [Example 828, 3-((1s,4s)-4-((2-aminoethyl)amino)cyclohexyl)-2-(1H-tetrazol-5-yl)-6-(trifluoromethyl)benzenesulfonamide] showed an IC50 (NDM-1) of 8.29 nM, an IC50 (IMP-1) of 72.9 nM and an IC50 (VIM-1; [5]) of 73.3 nM. The “Escherichia coli MITC95” value [1] was 0.7813 µM, the “Klebsiella pneumoniae MITC95” value [2] was 6.25 µM and the “Serratia marcescens MITC95” value [3] was 1.563 µM.
For `NCCNC1CCN(c2ccc(C(F)(F)F)c(S(N)(=O)=O)c2-c2nnn[nH]2)CC1` [Example 829, 3-[4-(2-aminoethylamino)-1-piperidyl]-2-(1H-tetrazol-5-yl)-6-(trifluoromethyl)benzenesulfonamide], the IC50 (NDM-1) was 59.8 nM, the IC50 (IMP-1) was 93.3 nM and the IC50 (VIM-1; [4]) was 1.08 nM. The “Escherichia coli MITC95” value [1] was 0.7813 µM, the “Klebsiella pneumoniae MITC95” value [2] was 0.7813 µM and the “Serratia marcescens MITC95” value [3] was 0.9766 µM.
Compound `NC1(CNC2CCC(c3ccc(C(F)(F)F)c(S(N)(=O)=O)c3-c3nnn[nH]3)CC2)CC1` (stereo not drawn) [Example 830, 3-[4-[(1-aminocyclopropyl)methylamino]cyclohexyl]-2-(1H-tetrazol-5-yl)-6-(trifluoromethyl)benzenesulfonamide] has an IC50 (NDM-1) of 1.93 nM, an IC50 (IMP-1) of 3.82 nM and an IC50 (VIM-1; [4]) of 0.247 nM. The “Escherichia coli MITC95” value [1] was 0.25 µM, the “Klebsiella pneumoniae MITC95” value [2] was 0.8542 µM and the “Serratia marcescens MITC95” value [3] was 0.724 µM.
With `NS(=O)(=O)c1c(C(F)(F)F)ccc([C@H]2CC[C@@H](C3CCNCC3)CC2)c1-c1nnn[nH]1` [Example 831, 3-((1s,4s)-4-(piperidin-4-yl)cyclohexyl)-2-(1H-tetrazol-5-yl)-6-(trifluoromethyl)benzenesulfonamide] the IC50 (NDM-1) was 0.817 nM, the IC50 (IMP-1) was 0.892 nM and the IC50 (VIM-1; [4]) was 2.84 nM. For the same compound, the “Escherichia coli MITC95” value [1] was 2.344 µM, the “Klebsiella pneumoniae MITC95” value [2] was 50 µM and the “Serratia marcescens MITC95” value [3] was 3.125 µM.
Compound `NS(=O)(=O)c1c(C(F)(F)F)ccc([C@H]2CC[C@H](C3CCNCC3)CC2)c1-c1nnn[nH]1` [Example 832, 3-((1r,4r)-4-(piperidin-4-yl)cyclohexyl)-2-(1H-tetrazol-5-yl)-6-(trifluoromethyl)benzenesulfonamide] has an IC50 (NDM-1) of 0.501 nM, an IC50 (IMP-1) of 1.46 nM and an IC50 (VIM-1; [4]) of 0.212 nM. For the same compound, the “Escherichia coli MITC95” value [1] was 1.563 µM, the “Klebsiella pneumoniae MITC95” value [2] was 4.688 µM and the “Serratia marcescens MITC95” value [3] was 3.125 µM.
`NS(=O)(=O)c1c(C(F)(F)F)ccc(C2CCC3(CCNCC3)CC2)c1-c1nnn[nH]1` [Example 833, 3-(3-azaspiro[5.5]undecan-9-yl)-2-(1H-tetrazol-5-yl)-6-(trifluoromethyl)benzenesulfonamide] was tested, and the IC50 (NDM-1) was 0.74 nM, the IC50 (IMP-1) was 4.31 nM and the IC50 (VIM-1; [4]) was 3.33 nM. For the same compound, the “Escherichia coli MITC95” value [1] was 1.563 µM, the “Klebsiella pneumoniae MITC95” value [2] was 12.5 µM and the “Serratia marcescens MITC95” value [3] was 3.125 µM.
Compound `NC1(CN2CCC3(CCC(c4ccc(C(F)(F)F)c(S(N)(=O)=O)c4-c4nnn[nH]4)CC3)CC2)CC1` [Example 834, 3-[3-[(1-aminocyclopropyl)methyl]-3-azaspiro[5.5]undecan-9-yl]-2-(1H-tetrazol-5-yl)-6-(trifluoromethyl)benzenesulfonamide] has an IC50 (NDM-1) of 1.49 nM, an IC50 (IMP-1) of 5.45 nM and an IC50 (VIM-1; [4]) of 13.3 nM. The “Escherichia coli MITC95” value [1] was 6.25 µM, the “Klebsiella pneumoniae MITC95” value [2] was 50 µM and the “Serratia marcescens MITC95” value [3] was 6.25 µM.
`NS(=O)(=O)c1c(C(F)(F)F)ccc(C2CCN(C3CCNCC3)CC2)c1-c1nnn[nH]1` [Example 835, 3-[1-(4-piperidyl)-4-piperidyl]-2-(1H-tetrazol-5-yl)-6-(trifluoromethyl)benzenesulfonamide] showed an IC50 (NDM-1) of 96 nM, an IC50 (IMP-1) of 232 nM and an IC50 (VIM-1; [4]) of 190 nM. For the same compound, the “Escherichia coli MITC95” value [1] was 3.125 µM, the “Klebsiella pneumoniae MITC95” value [2] was 100 µM and the “Serratia marcescens MITC95” value [3] was 6.25 µM.
For `NC1Cc2cccc(-c3ccc(C(F)(F)F)c(S(N)(=O)=O)c3-c3nnn[nH]3)c2C1` (stereo not drawn) [Example 836, 3-(2-aminoindan-4-yl)-2-(1H-tetrazol-5-yl)-6-(trifluoromethyl)benzenesulfonamide], the IC50 (NDM-1) was 54.9 nM, the IC50 (IMP-1) was 134 nM and the IC50 (VIM-1; [4]) was 2.39 nM. For the same compound, the “Escherichia coli MITC95” value [1] was 2.344 µM, the “Klebsiella pneumoniae MITC95” value [2] was 1.563 µM and the “Serratia marcescens MITC95” value [3] was 4.688 µM.
